From patent publication US20100154083A1, “Methods and Compositions for the Selection of A Transgenic Plant” (Pioneer Hi-Bred International, Inc., priority 2006, published 2010) come the findings set out here.

In this experiment the test system is non-transgenic maize seed from inbred N46. In words: Priming matrix additive: Dormex + DMSO. Format: in vivo. The settings on record: 1% DMSO without Dormex, 3 hours. As for the experimental part:
Non-transgenic maize seed from inbred N46 were primed with 0, 5, 10, 15, or 30% Dormex® solutions with and without 1% DMSO. For each treatment, 96 seeds were soaked in 50 ml of Dormex® solution in a petri dish for 3 hours at room temperature. After priming the seeds were transferred into pollination bags, and dried overnight in front of a fan. Dried primed seed were then planted into flats to germinate.

Turning to `C[S+](C)[O-]` [DMSO], the Germination % stood at 93%.
